Where “and” joins values, the source holds several entries; their conditions need not be identical. Equal entries are not always repeated. Entries after “also recorded” stand apart in the source; their conditions may differ. Where two headings read alike, the source gives them in different places.

These results are taken from article PMC6025150, “Synthesis, enzyme inhibitory kinetics mechanism and computational study of N-(4-methoxyphenethyl)-N-(substituted)-4-methylbenzenesulfonamides as novel therapeutic agents for Alzheimer’s disease” (PeerJ, 2018).

Experiment [1] addresses T1, acetylcholinesterase (from human erythrocytes) (Homo sapiens, UniProt P22303).
T1 construct: acetylcholinesterase (from human erythrocytes, purchased from Sigma-Aldrich, Seoul, Korea); purchased Sigma-Aldrich, Seoul, Korea; host or cells: human erythrocytes (natural source)
As to the kind of experiment: biochemical. Also on record: LogIC50 (best-fit value): unit not given here. As to the method: The inhibitory activities of synthesized compounds were determined spectrophotometrically using acetylthiocholine iodide as substrate by following the method of ([Ellman et al., 1961]). Briefly, The assay solution consisted of 180 µL of 50 mM Tris-HCl buffer, pH 7.7, containing (0.1 M sodium chloride and 0.02 M magnesium chloride) and 20 µL of enzyme (AChE, EC 3.1.1.7), acetylcholinesterase (from human erythrocytes, purchased from Sigma-Aldrich, Seoul, Korea) solution (50 U per well); increasing concentrations of test compounds (10 µL) were added to the assay solution and pre incubated for 30 min at 4 °C. After that 5,5′ Dithiobis (2 nitrobenzoic acid) (0.3 mM, 20 µL) and acetylthiocholine iodide (1.8 mM, 20 µL) were added to the reaction mixture and incubated at 37 °C for 10 min, followed by the measurement of absorbance at 412 nm. For non-enzymatic reaction, the assays were carried out with a blank containing all components except acetylcholinesterase. The assay measurements were measured at 412 nm using a micro plate reader (OPTI Max Tunable; Molecular Devices, Sunnyvale, CA, USA) having a wave-length range from 340–850 nm; for 96 well plates. The reaction rates were compared and percent inhibition was calculated due to the presence of tested inhibitors. […] Each concentration was analyzed in three independent experiments run in triplicate. The IC50 values were calculated by nonlinear regression using GraphPad Prism 5.0.
The % of Inhibition of Acetylcholinesterase was calculated as following: Inhibition%=B−S∕B×100. Here, the B and S are the absorbance’s for the blank and samples.

The target in experiment [2] is T1, acetylcholinesterase (from human erythrocytes). The experiment is described as follows: Determination of AChE inhibition kinetics (Lineweaver-Burk and secondary plots). It counts as biochemical. Here is the method: The reaction mixture consisted of 180 µL of 50 mM Tris-HCl buffer (pH 7.7); 10 µL of 5c at the different concentrations (0.00, 0.075 and 0.15 µM) and 20 µL enzyme AChE (50 U per well). We added 20 µL of DTNB 0.3 mM and 20 µL of ATCI substrate at the different concentrations (4, 2, 1, 0.5, 0.25 and 0.125 mM) and mixed, pre-incubated time was same as acetylcholinesterase assay. We measured the absorbance at 412 nm up to 5 min. Lineweaver-Burk plot of the inverse of velocities vs. the inverse of substrate concentration was used for assessment of the type of inhibition AChE kinetically. […] The results (change in absorbance per sec) were processed by using SoftMaxPro software.

T1 sequence (P22303 32-617 isoform P22303-2 limits assumed): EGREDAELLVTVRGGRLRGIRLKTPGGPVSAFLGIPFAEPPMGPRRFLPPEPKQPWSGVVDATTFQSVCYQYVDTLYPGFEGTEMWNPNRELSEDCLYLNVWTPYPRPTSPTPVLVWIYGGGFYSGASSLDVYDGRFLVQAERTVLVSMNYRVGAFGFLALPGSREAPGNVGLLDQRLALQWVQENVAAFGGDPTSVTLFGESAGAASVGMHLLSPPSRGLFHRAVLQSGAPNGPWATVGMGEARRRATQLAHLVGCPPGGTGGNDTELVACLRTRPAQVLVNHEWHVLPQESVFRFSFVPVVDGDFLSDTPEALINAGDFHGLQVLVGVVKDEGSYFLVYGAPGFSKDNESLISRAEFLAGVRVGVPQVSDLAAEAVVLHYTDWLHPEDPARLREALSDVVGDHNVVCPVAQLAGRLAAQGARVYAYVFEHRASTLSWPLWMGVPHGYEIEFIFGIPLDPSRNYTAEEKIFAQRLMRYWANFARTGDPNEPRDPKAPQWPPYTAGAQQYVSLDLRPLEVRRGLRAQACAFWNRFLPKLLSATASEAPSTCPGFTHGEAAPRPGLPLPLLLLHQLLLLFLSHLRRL

Regarding `COc1ccc(CCN(C(C)C)S(=O)(=O)c2ccc(C)cc2)cc1` [Compound 5c, N-(4-Methoxyphenethyl)-4-methyl-N-(2-propyl)benzensulfonamide], the 50% inhibitory concentration (IC50) in experiment [1] (each of three independent experiments, Raw Data of IC50 sheet, read-out: IC50, single experiment (converted)) was 0.0424 µM and 0.108 µM; in experiment [1] (from human erythrocytes, mean ± SEM, read-out: Acetylcholinesterase IC50 ± SEM), 0.0751 ± 0.0189 µM; in experiment [1] (log(inhibitor) vs. response fit, single run, unit inferred, IC50 Raw Data sheet, read-out: IC50 (best-fit value) (converted)) it was 0.075 µM; in experiment [1] (mean converted to uM, Raw Data of IC50 sheet, read-out: IC50), 0.0751 µM; in experiment [1] (mean of three experiments, Raw Data of IC50 sheet, read-out: IC50 (Mean) (converted)), 0.0751 µM. Besides, the “LogIC50 (best-fit value)” value in experiment [1] (log(inhibitor) vs. response fit, single run, IC50 Raw Data sheet) is -1.584. Besides, in experiment [2] (Lineweaver-Burk plots), the type of inhibition entry is reported as “competitively; also recorded: competitive”. In addition, the “Slope of Lineweaver-Burk line” value in experiment [2] (compound 0.075 µM) is 1360.1; in experiment [2] (compound 0.15 µM), 1563.63. Moreover, the “Vmax (1/V)” value in experiment [2] (compound 0.075 µM, substrate axis value 0.25) is recorded as 994.096; in experiment [2] (compound 0.075 µM, substrate axis value 0.5) it was 1353.4; in experiment [2] (compound 0.075 µM, substrate axis value 1), 2004.13; in experiment [2] (compound 0.075 µM, substrate axis value 2), 3323.6; in experiment [2] (compound 0.075 µM, substrate axis value 4), 5882.71; in experiment [2] (compound 0.075 µM, substrate axis value 8), 11587.8. Moreover, the “Vmax (1/V)” value in experiment [2] (compound 0.15 µM, substrate axis value 0.25) was 1136.29; in experiment [2] (compound 0.15 µM, substrate axis value 0.5), 1514.8; in experiment [2] (compound 0.15 µM, substrate axis value 1), 2227.02; in experiment [2] (compound 0.15 µM, substrate axis value 2), 3687.56; in experiment [2] (compound 0.15 µM, substrate axis value 4) it was 6343.71; in experiment [2] (compound 0.15 µM, substrate axis value 8), 13371.1. Besides, in experiment [2] (from Dixon / secondary plot of slope vs inhibitor concentration, read-out: inhibition constant Ki (EI dissociation constant)), the Ki came to 2500 nM.
